{"source": "patent US4298739A", "about": "“Novel carbostyril derivatives” (priority 1977, dated 1981)", "key": {"rabbit platelet": {"test_system": "rabbit platelet", "assay": "ADP-induced aggregation in rabbit platelets (AG-II Aggregometer)", "assay_type": "cell-based", "design": "inhibition: dose or concentration left out as unconfirmed", "settings": "Oryctolagus cuniculus, Platelet, read-out: Inhibition effect on ADP-induced aggregation in rabbit platelet", "summary_of_the_method": "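Rabbit citrated PRP, diluted with PPP to 300,000/mm^3 platelets for ADP or 450,000/mm^3 for collagen, was preincubated with compound 1 min at 37° C. before inducer was added. ADP at 7.5×10^-5 M or collagen supernatant in Auren Beronal buffer pH 7.35; transmittance change recorded, percent inhibition derived.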"}, "[1]": {"assay": "Concentration in blood of male Wister rats", "assay_type": "in vivo", "settings": "30 mg/kg water suspension, 30 mg/kg; for Concentration in blood: Rat", "experimental": "(§1) A water suspension of test compound was administered at the dose of 30 mg/kg to the overnight fasted male Wister rats and male beagle dogs, and after a predetermined period of time, blood was collected from said animals to obtain plasma. 2 to 3 Milliliters of 0.1 N-NaOH and 2 ml of CHCl3 were added to 1 ml of the obtained plasma, and the mixture was shaken and extracted in a shaker for 2 hours, and after centrifugal separation, the organic layer was washed with 2 ml of 0.1 N-HCl. This organic layer was then subjected to a freezing and thawing treatment, and after evaporating chloroform under nitrogen stream, the residue was redissolved in 100 μl of chloroform and spotted on a thin layer plate of \"Silica Gel 60 F254 \" manufactured by Merck & Co., Inc. This was developed in a chloroform: butanol mixed solvent (5:1) and determined by measuring the spots with same Rf value as the test compound according to the absorbance method by using Shimazu CS-910 Thin Layer Chromato-scanner,and therefrom the concentration (μg/ml) of test compound A in blood was determined."}, "[2]": {"assay": "Concentration in blood of male beagle dogs", "assay_type": "in vivo", "settings": "30 mg/kg water suspension, 30 mg/kg; for Concentration in blood: Beagle dog", "experimental": "as §1"}}, "note": "Where “and” joins values, the source holds several entries; their conditions need not be identical. Equal values may be shown once.", "data": [{"smiles": "CC(=O)OC1CCC(N(C)C(=O)CCCOc2ccc3[nH]c(=O)ccc3c2)CC1", "note": "(stereo not drawn) [compound 3, 6-{3-[N-Methyl-N-(4-acetyloxycyclohexyl)aminocarbonyl]propoxy}carbostyril]", "values": [{"measurement": "inhibition at 100 µM (stock)", "setting": "rabbit platelet; 10^-4 mole", "result": 91.5, "unit": "%"}, {"measurement": "inhibition at 10 µM (stock)", "setting": "rabbit platelet; 10^-5 mole", "result": 75, "unit": "%"}, {"measurement": "inhibition at 1 µM (stock)", "setting": "rabbit platelet; 10^-6 mole", "result": 20.8, "unit": "%"}]}, {"smiles": "CN(C(=O)CCCOc1ccc2[nH]c(=O)ccc2c1)C1CCCCC1", "note": "[compound 16, 6-[3-(N-Methyl-N-cyclohexylaminocarbonyl)propoxy]carbostyril]", "values": [{"measurement": "inhibition", "setting": "rabbit platelet", "result": 91.7, "unit": "%"}, {"measurement": "Concentration in blood", "setting": "[1]; 1 hr., 60 min", "result": "1060 ng/mL and 880 ng/mL"}, {"measurement": "Concentration in blood", "setting": "[1]; 4 hr., 240 min", "result": "710 ng/mL and 830 ng/mL"}, {"measurement": "Concentration in blood", "setting": "[1]; 12 hr., 720 min", "result": "730 ng/mL and 780 ng/mL"}, {"measurement": "concentration at 1 h", "setting": "[1]; rat, plasma, 1 hr.", "result": 900, "unit": "ng/mL"}, {"measurement": "concentration at 4 h", "setting": "[1]; rat, plasma, 4 hr.", "result": 1100, "unit": "ng/mL"}, {"measurement": "concentration at 12 h", "setting": "[1]; rat, plasma, 12 hr.", "result": 640, "unit": "ng/mL"}, {"measurement": "Concentration in blood", "setting": "[2]; 1 hr., 60 min", "result": 130, "unit": "ng/mL"}, {"measurement": "Concentration in blood", "setting": "[2]; 2 hr., 120 min", "result": 310, "unit": "ng/mL"}, {"measurement": "Concentration in blood", "setting": "[2]; 6 hr., 360 min", "result": 210, "unit": "ng/mL"}, {"measurement": "Concentration in blood", "setting": "[2]; 12 hr., 720 min", "result": 70, "unit": "ng/mL"}, {"measurement": "concentration at 1 h", "setting": "[2]; dog, plasma, 1 hr.", "result": 230, "unit": "ng/mL"}, {"measurement": "concentration at 2 h", "setting": "[2]; dog, plasma, 2 hr.", "result": 280, "unit": "ng/mL"}, {"measurement": "concentration at 6 h", "setting": "[2]; dog, plasma, 6 hr.", "result": 110, "unit": "ng/mL"}, {"measurement": "concentration at 12 h", "setting": "[2]; dog, plasma, 12 hr.", "result": 40, "unit": "ng/mL"}]}]}
